Assay results: PubChem BioAssay AID330 (DTP/NCI, 2004)
Values joined by “and” are separate entries in the source; they are usually repeats but may differ in a detail not shown here. Equal values may be shown once. Inconclusive results and toxic doses are left out.

Tested on: P388 leukemia ip, CD2F1 mice, survival T/C
Assay: NCI In Vivo Anticancer Drug Screen. Data for tumor model P388 Leukemia (intraperitoneal) in CD2F1 (CDF1) mice
Details: endpoint: median survival time, higher = longer survival
Procedure, shortened: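 Mice carrying the transplanted tumor received test compound or vehicle. Survival was recorded in each group, and the value is the treated-group measurement divided by that of the vehicle-treated control group.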

[1] = dose: 60.0 mg/kg/injection, schedule: Q01DX005 (ip), vehicle: saline with Tween-80
[2] = dose: 120.0 mg/kg/injection, schedule: Q01DX005 (ip), vehicle: saline with Tween-80
[3] = dose: 240.0 mg/kg/injection, schedule: Q01DX005 (ip), vehicle: saline with Tween-80
[4] = dose: 50.0 mg/kg/injection, schedule: Q01DX009 (ip), vehicle: Klucel (hydroxypropylcellulose) (HPC)
[5] = dose: 100.0 mg/kg/injection, schedule: Q01DX009 (ip), vehicle: Klucel (hydroxypropylcellulose) (HPC)
[6] = dose: 200.0 mg/kg/injection, schedule: Q01DX009 (ip), vehicle: Klucel (hydroxypropylcellulose) (HPC)
[7] = dose: 6.25 mg/kg/injection, schedule: Q01DX009 (ip), vehicle: saline
[8] = dose: 12.5 mg/kg/injection, schedule: Q01DX009 (ip), vehicle: saline
[9] = dose: 50.0 mg/kg/injection, schedule: Q01DX005 (ip), vehicle: Klucel (hydroxypropylcellulose) (HPC)
[10] = dose: 100.0 mg/kg/injection, schedule: Q01DX005 (ip), vehicle: Klucel (hydroxypropylcellulose) (HPC)
[11] = dose: 200.0 mg/kg/injection, schedule: Q01DX005 (ip), vehicle: Klucel (hydroxypropylcellulose) (HPC)
[12] = dose: 50.0 mg/kg/injection, schedule: Q01DX005 (ip), vehicle: saline with Tween-80
[13] = dose: 100.0 mg/kg/injection, schedule: Q01DX005 (ip), vehicle: saline with Tween-80
[14] = dose: 12.5 mg/kg/injection, schedule: Q01DX009 (ip), vehicle: saline with Tween-80
[15] = dose: 25.0 mg/kg/injection, schedule: Q01DX009 (ip), vehicle: saline with Tween-80
[16] = dose: 50.0 mg/kg/injection, schedule: Q01DX009 (ip), vehicle: saline with Tween-80
[17] = dose: 100.0 mg/kg/injection, schedule: Q01DX009 (ip), vehicle: saline with Tween-80
[18] = dose: 200.0 mg/kg/injection, schedule: Q01DX009 (ip), vehicle: saline with Tween-80
[19] = dose: 50.0 mg/kg/injection, schedule: Q01DX009 (ip), vehicle: saline
[20] = dose: 100.0 mg/kg/injection, schedule: Q01DX009 (ip), vehicle: saline
[21] = dose: 100.0 mg/kg/injection, schedule: Q01DX001 (ip), vehicle: Klucel (hydroxypropylcellulose) (HPC)
[22] = dose: 200.0 mg/kg/injection, schedule: Q01DX001 (ip), vehicle: Klucel (hydroxypropylcellulose) (HPC)

With `COC(=O)c1nc2nnc(NC(=O)Nc3ccc(Cl)cc3)n2c(-c2ccc(Cl)cc2)c1C` the T/C [1] was 99 % of control, the T/C [2] was 99 % of control and the T/C [3] was 100 % of control.

In the case of `CN1NC(=O)c2ccccc2NC1=S`, the T/C [4] is reported as 104 % of control, the T/C [5] is reported as 91 % of control and the T/C [6] is reported as 101 % of control.

`N#Cc1cn(N(CCO)CCO)c(=O)[nH]c1=O` was tested, and the T/C (dose: 25.0 mg/kg/injection, schedule: Q01DX005 (ip), vehicle: saline) was 105 % of control, the T/C (dose: 50.0 mg/kg/injection, schedule: Q01DX005 (ip), vehicle: saline) was 106 % of control and the T/C (dose: 100.0 mg/kg/injection, schedule: Q01DX005 (ip), vehicle: saline) was 105 % of control. The T/C (dose: 200.0 mg/kg/injection, schedule: Q01DX005 (ip), vehicle: saline) was 103 % of control.

`CCN1c2ccccc2C(Cl)(c2ccc(N(C)C)cc2)c2ccccc21` was tested, and the T/C [7] was 116 % of control and the T/C [8] was 120 % of control.

`CCOc1cc(/C=N\NC(=O)C(=O)N/N=C\c2ccc(O)c(OCC)c2)ccc1O` was tested, and the T/C [4] was 96 % of control, the T/C [5] was 94 % of control and the T/C [6] was 94 % of control.

In the case of `O=S(=O)(CC(O)C(Cl)(Cl)Cl)N(Cc1ccccc1)Cc1ccccc1` (stereo unspecified), the T/C [4] is reported as 103 % of control, the T/C [5] is reported as 103 % of control and the T/C [6] is reported as 97 % of control.

With `Cc1cc(NC(=O)c2ccccc2O)n(-c2ccccc2)n1` the T/C (dose: 100.0 mg/kg/injection, schedule: Q01DX001 (ip), vehicle: saline with Tween-80) was 97 % of control, the T/C (dose: 200.0 mg/kg/injection, schedule: Q01DX001 (ip), vehicle: saline with Tween-80) was 100 % of control and the T/C (dose: 400.0 mg/kg/injection, schedule: Q01DX001 (ip), vehicle: saline with Tween-80) was 95 % of control.

`[N-]=[N+]=Nc1nn2cnnc2c2[nH]c3ccccc3c12` was tested, and the T/C (dose: 12.5 mg/kg/injection, schedule: Q01DX005 (ip), vehicle: Klucel (hydroxypropylcellulose) (HPC)) was 104 % of control, the T/C (dose: 25.0 mg/kg/injection, schedule: Q01DX005 (ip), vehicle: Klucel (hydroxypropylcellulose) (HPC)) was 108 % of control and the T/C [9] was 100 % of control and 101 % of control. For the same compound, the T/C [10] was 96 % of control and the T/C [11] was 99 % of control.

In the case of `CCCCOP(=O)(OCCCC)C(CC(=O)N(CCCC)CCCC)C(=O)N(CCCC)CCCC` (stereo unspecified), the T/C [12] is reported as 98 % of control and the T/C [13] is reported as 102 % of control.

With `CC(C)C1=CC(=O)C2=C(CCC3C(C)(C(=O)O)CCC[C@]23C)C1=O` (stereo partly specified) the T/C (dose: 6.0 mg/kg/injection, schedule: Q01DX005 (ip), vehicle: Klucel (hydroxypropylcellulose) (HPC)) was 102 % of control, the T/C (dose: 12.0 mg/kg/injection, schedule: Q01DX005 (ip), vehicle: Klucel (hydroxypropylcellulose) (HPC)) was 104 % of control and the T/C (dose: 24.0 mg/kg/injection, schedule: Q01DX005 (ip), vehicle: Klucel (hydroxypropylcellulose) (HPC)) was 100 % of control. The T/C (dose: 48.0 mg/kg/injection, schedule: Q01DX005 (ip), vehicle: Klucel (hydroxypropylcellulose) (HPC)) was 99 % of control.

With `CCOP(=O)(O)C1CCCC(C)[N-]1.CCOP(=O)(O)C1CCCC(C)[N-]1.[Mn+2]` (stereo unspecified) the T/C (dose: 100.0 mg/kg/injection, schedule: Q04DX003 (ip), vehicle: Klucel (hydroxypropylcellulose) (HPC)) was 100 % of control and the T/C (dose: 200.0 mg/kg/injection, schedule: Q04DX003 (ip), vehicle: Klucel (hydroxypropylcellulose) (HPC)) was 111 % of control.

With `CC(C)CCC(=O)OCCN1CCN(CCCN2c3ccccc3Sc3ccc(C(F)(F)F)cc32)CC1` the T/C (dose: 12.5 mg/kg/injection, schedule: Q01DX009 (ip), vehicle: Klucel (hydroxypropylcellulose) (HPC)) was 114 % of control and 117 % of control and the T/C (dose: 25.0 mg/kg/injection, schedule: Q01DX009 (ip), vehicle: Klucel (hydroxypropylcellulose) (HPC)) was 116 % of control.

`Nc1nc(N)c2nc3c(nc2n1)CCCCCCCCCC3` was tested, and the T/C [14] was 92 % of control, the T/C [15] was 92 % of control and the T/C [16] was 89 % of control. For the same compound, the T/C [17] was 90 % of control.

`CC(C)(C)C(C)(C)c1ccc(OCCSCCOc2ccc(C(C)(C)C(C)(C)C)cc2)cc1` was tested, and the T/C [16] was 92 % of control, the T/C [17] was 90 % of control and the T/C [18] was 87 % of control.

In the case of `CNC(=S)N/N=C/Cn1cc([N+](=O)[O-])c(=O)[nH]c1=O`, the T/C [9] is reported as 98 % of control and the T/C [10] is reported as 100 % of control.

For `O=C(O)C(Cc1ccccc1)Nc1ncnc2nc[nH]c12` (stereo unspecified), the T/C [9] was 93 % of control, the T/C [10] was 100 % of control and the T/C [11] was 100 % of control.

For `O=[N+]([O-])c1ccc(Nc2ccccc2)c2nonc12`, the T/C [1] was 110 % of control, the T/C [2] was 97 % of control and the T/C [3] was 94 % of control.

For `CO/N=C1/OC(=O)OCC1(c1ccccc1)c1ccccc1`, the T/C [12] was 100 % of control, the T/C [13] was 104 % of control and the T/C (dose: 200.0 mg/kg/injection, schedule: Q01DX005 (ip), vehicle: saline with Tween-80) was 100 % of control.

`CC1(C)CC23C4COC(=O)C2CCC1C3CC4=O` (stereo unspecified) was tested, and the T/C (dose: 1.5 mg/kg/injection, schedule: Q01DX009 (ip), vehicle: DMSO) was 94 % of control, the T/C (dose: 3.0 mg/kg/injection, schedule: Q01DX009 (ip), vehicle: DMSO) was 107 % of control and 94 % of control and the T/C (dose: 6.0 mg/kg/injection, schedule: Q01DX009 (ip), vehicle: DMSO) was 104 % of control and 91 % of control. For the same compound, the T/C (dose: 12.0 mg/kg/injection, schedule: Q01DX009 (ip), vehicle: DMSO) was 88 % of control and 95 % of control, the T/C (dose: 24.0 mg/kg/injection, schedule: Q01DX009 (ip), vehicle: DMSO) was 90 % of control and the T/C (dose: 48.0 mg/kg/injection, schedule: Q01DX009 (ip), vehicle: DMSO) was 106 % of control and 91 % of control.

`O=[N+]([O-])c1ccc(C(Nc2nncs2)Nc2nncs2)cc1` was tested, and the T/C [9] was 100 % of control, the T/C [10] was 103 % of control and the T/C [11] was 119 % of control.

With `Cc1ccc(S(=O)(=O)/C=C/C(=O)c2ccc3ccccc3c2)cc1` the T/C (dose: 100.0 mg/kg/injection, schedule: Q04DX003 (ip), vehicle: saline) was 103 % of control, the T/C (dose: 200.0 mg/kg/injection, schedule: Q04DX003 (ip), vehicle: saline) was 103 % of control and the T/C (dose: 400.0 mg/kg/injection, schedule: Q04DX003 (ip), vehicle: saline) was 100 % of control.

With `CCN(CC)CCCC(C)Nc1cc(OC)c2nc(C)cc(Cl)c2c1OC` (stereo unspecified) the T/C [16] was 87 % of control, the T/C [17] was 87 % of control and the T/C [18] was 95 % of control.

For `CC1(CO)CSC(Nc2ccc(F)cc2)=N1` (stereo unspecified), the T/C [16] was 104 % of control, the T/C [17] was 98 % of control and the T/C [18] was 104 % of control.

With `Nn1cnnc1N/N=C\c1ccc(N(CCCl)CCCl)cc1` the T/C [8] was 121 % of control and 122 % of control, the T/C [19] was 174 % of control and 188 % of control and the T/C [20] was 195 % of control and 209 % of control.

For `COc1ccc(CCN)cc1`, the T/C [19] was 101 % of control and 106 % of control.

In the case of `CCCCCCOC(CN(C)C)C(Cl)(Cl)Cl` (stereo unspecified), the T/C (dose: 50.0 mg/kg/injection, schedule: Q01DX009 (ip), vehicle: suspension in saline) is reported as 97 % of control, the T/C (dose: 100.0 mg/kg/injection, schedule: Q01DX009 (ip), vehicle: suspension in saline) is reported as 96 % of control and the T/C (dose: 400.0 mg/kg/injection, schedule: Q01DX009 (ip), vehicle: suspension in saline) is reported as 124 % of control.

In the case of `N#Cc1c(Cl)nc2sccn12`, the T/C [21] is reported as 95 % of control and the T/C [22] is reported as 103 % of control.

With `CCOC(=O)CN=NNc1ccc([N+](=O)[O-])cc1` the T/C [21] was 106 % of control, the T/C [22] was 109 % of control and the T/C (dose: 400.0 mg/kg/injection, schedule: Q01DX001 (ip), vehicle: Klucel (hydroxypropylcellulose) (HPC)) was 109 % of control.

With `CC1(c2ccc(Cl)cc2)OC(=O)C(=Cc2ccc([N+](=O)[O-])s2)C(=O)O1` (stereo unspecified) the T/C [17] was 122 % of control.

`CN(C)c1cc(O)c(-n2c3cc(=O)c(N(C)C)cc-3nc3ccccc32)cc1O` was tested, and the T/C (dose: 3.12 mg/kg/injection, schedule: Q01DX009 (ip), vehicle: saline) was 100 % of control, the T/C (dose: 6.25 mg/kg/injection, schedule: Q01DX009 (ip), vehicle: saline with Tween-80) was 93 % of control and the T/C [7] was 96 % of control. For the same compound, the T/C [14] was 90 % of control, the T/C [8] was 100 % of control and the T/C [15] was 91 % of control. For the same compound, the T/C (dose: 25.0 mg/kg/injection, schedule: Q01DX009 (ip), vehicle: saline) was 115 % of control, the T/C [19] was 120 % of control and the T/C [20] was 90 % of control.

`CN(C)P(=O)(N=S=NC(C)(C)C)N(C)C` was tested, and the T/C [19] was 109 % of control and the T/C [20] was 115 % of control.
